# How the values were obtained:
# [1] = test system: Q2 150-206 (RNA, G4) GAGACUAAUGAACUCUUCCGGGAUGGGGUAAACUGGGGUCGCAUUGUGGCCUUUUUCUCCUUC; assay: fluorescence enhancement; conditions: 100 mM KCl; 10 mM Tris pH 7.0, 25 °C, 10 µM RNA, 1 µM NMM
# [2] = test system: XS 38-206 (RNA, mRNA element) GAGACUGAGGGAGGCAGGCGACGAGUUUGAACUGCGGUACCGGCGGGCAUUCAGUGACCUGACAUCCCAGCUCCACAUCACCCCAGGGACAGCAUAUCAGAGCUUUGAACAGGUAGUGAAUGAACUCUUCCGGGAUGGGGUAAACUGGGGUCGCAUUGUGGCCUUUUUCUCCUUC; assay: fluorescence enhancement; conditions: 100 mM KCl; 10 mM Tris pH 7.0, 25 °C, 10 µM RNA, 1 µM NMM
compound,measurement,setting,value
CCc1c(C)c2cc3nc(cc4nc(cc5c(CC)c(C)c(cc1[nH]2)n5C)C(C)=C4CCC(=O)O)C(CCC(=O)O)=C3C,binding,[1],yes
same,binding,[2],yes

# Reference: paper PMC9428248 (2022)
